Test: wn = mass fraction of the nth substance listed
Settings: 101 kPa, Radial Heat Flow Method

[Al] [aluminum] + [Sn]
Settings | thermal conductivity [W/m/K]
323 K, Crystal, w1 = 0.022 | 98.8
323 K, Crystal, w1 = 0.25 | 139.3
323 K, Crystal, w1 = 0.5 | 191.7
323 K, Crystal, w1 = 0.75 | 235.5
343 K, Crystal, w1 = 0.022 | 97.4
343 K, Crystal, w1 = 0.25 | 136.8
343 K, Crystal, w1 = 0.5 | 185.3
343 K, Crystal, w1 = 0.75 | 233.7
363 K, Crystal, w1 = 0.005 | 83.5
363 K, Crystal, w1 = 0.022 | 93.3
363 K, Crystal, w1 = 0.25 | 135.9
363 K, Crystal, w1 = 0.5 | 180.6
363 K, Crystal, w1 = 0.75 | 228.2
383 K, Crystal, w1 = 0.005 | 79.5
383 K, Crystal, w1 = 0.022 | 92.7
383 K, Crystal, w1 = 0.25 | 132.3
383 K, Crystal, w1 = 0.5 | 177
383 K, Crystal, w1 = 0.75 | 224.4
403 K, Crystal, w1 = 0.005 | 78.7
403 K, Crystal, w1 = 0.022 | 92.9
403 K, Crystal, w1 = 0.25 | 130.5
403 K, Crystal, w1 = 0.5 | 174.6
403 K, Crystal, w1 = 0.75 | 220.9
423 K, Crystal, w1 = 0.005 | 78.5
423 K, Crystal, w1 = 0.022 | 90.5
423 K, Crystal, w1 = 0.25 | 125.4
423 K, Crystal, w1 = 0.5 | 170.6
423 K, Crystal, w1 = 0.75 | 217.6
423 K, Crystal, w1 = 1 | 302.9
443 K, Crystal, w1 = 0.005 | 77.8
443 K, Crystal, w1 = 0.022 | 88.2
443 K, Crystal, w1 = 0.25 | 123.9
443 K, Crystal, w1 = 0.5 | 166.6
443 K, Crystal, w1 = 0.75 | 211.4
463 K, Crystal, w1 = 0.005 | 76.3
463 K, Crystal, w1 = 0.022 | 86.3
463 K, Crystal, w1 = 0.25 | 118
463 K, Crystal, w1 = 0.5 | 160.1
463 K, Crystal, w1 = 0.75 | 207
473 K, Crystal, w1 = 1 | 288.3
483 K, Crystal, w1 = 0.005 | 75.8
483 K, Crystal, w1 = 0.022 | 82.7
483 K, Crystal, w1 = 0.25 | 116.5
483 K, Crystal, w1 = 0.5 | 152.6
483 K, Crystal, w1 = 0.75 | 196.2
493 K, Crystal, w1 = 0.005 | 69.7
493 K, Crystal, w1 = 0.022 | 80.3
493 K, Crystal, w1 = 0.25 | 112.3
493 K, Crystal, w1 = 0.5 | 142
493 K, Crystal, w1 = 0.75 | 188.5
501 K, Liquid, w1 = 0.005 | 73.8
523 K, Crystal, w1 = 1 | 278.6
573 K, Crystal, w1 = 1 | 261.8
623 K, Crystal, w1 = 1 | 255.7
673 K, Crystal, w1 = 1 | 244.8
723 K, Crystal, w1 = 1 | 241.4
773 K, Crystal, w1 = 1 | 238.6
823 K, Crystal, w1 = 1 | 227.4
873 K, Crystal, w1 = 1 | 226.1
923 K, Crystal, w1 = 1 | 208.8
933 K, Liquid, w1 = 1 | 235

[Sn] [tin] + [Al]
thermal conductivity [W/m/K], w2 = 0
Settings | 373 K | 393 K | 413 K | 433 K | 453 K | 473 K | 504 K
Crystal | 67.2 | 65.2 | 63.3 | 61.7 | 62.5 | 60.6 | –
Liquid | – | – | – | – | – | – | 67.2
